Measured values from ChEMBL document CHEMBL4765391, “Design, synthesis, and Structure-Activity Relationships (SAR) of 3-vinylindazole derivatives as new selective tropomyosin receptor kinases (Trk) inhibitors” (Eur J Med Chem, 2020).
pIC50: −log10 of the molar value.

Key:
[1] = molecular target: BDNF/NT-3 growth factors receptor (Homo sapiens, UniProt Q16620); assay: Inhibition of TrkB (unknown origin) using Tyr1 peptide as substrate in presence of ATP measured after 2 hrs by FRET-based Z-Lyte kinase assay
[2] = molecular target: High affinity nerve growth factor receptor (Homo sapiens, UniProt P04629); assay: Inhibition of TrkA (unknown origin) using Tyr1 peptide as substrate in presence of ATP measured after 2 hrs by FRET-based Z-Lyte kinase assay
BaF3 [3] = assay: Antiproliferative activity against mouse BaF3 cells transfected with wild type CD74-NTRK1 (unknown origin) assessed as cell viability measured after 72 hrs by Micro plate reader method; settings: BaF3, 72 h
BaF3 [4] = assay: Antiproliferative activity against mouse BaF3 cells transfected with wild type ETV6-NTRK2 (unknown origin) assessed as cell viability measured after 72 hrs by Micro plate reader method; settings: BaF3, 72 h
BaF3 [5] = assay: Antiproliferative activity against mouse BaF3 cells transfected with wild type ETV6-NTRK3 (unknown origin) assessed as cell viability measured after 72 hrs by Micro plate reader method; settings: BaF3, 72 h
BaF3 [6] = assay: Antiproliferative activity against mouse BaF3 cells assessed as cell viability measured after 72 hrs by Micro plate reader method; type: functional, cell-based; settings: BaF3, 72 h
BaF3 [7] = assay: Antiproliferative activity against mouse BaF3 cells transfected with wild type CD74-NTRK1 (unknown origin) harbouring G667C mutation assessed as cell viability measured after 72 hrs by Micro plate reader method; type: functional, cell-based; settings: BaF3, 72 h
BaF3 [8] = assay: Antiproliferative activity against mouse BaF3 cells transfected with wild type ETV6-NTRK3 (unknown origin) harbouring G696A mutation assessed as cell viability measured after 72 hrs by Micro plate reader method; type: functional, cell-based; settings: BaF3, 72 h
BaF3 [9] = assay: Antiproliferative activity against mouse BaF3 cells transfected with wild type ETV6-NTRK2 (unknown origin) harbouring G639R mutation assessed as cell viability measured after 72 hrs by Micro plate reader method; type: functional, cell-based; settings: BaF3, 72 h
BaF3 [10] = assay: Antiproliferative activity against mouse BaF3 cells transfected with wild type CD74-NTRK1 (unknown origin) harbouring G595R mutation assessed as cell viability measured after 72 hrs by Micro plate reader method; type: functional, cell-based; settings: BaF3, 72 h
BaF3 [11] = assay: Antiproliferative activity against mouse BaF3 cells transfected with wild type ETV6-NTRK3 (unknown origin) harbouring G623R mutation assessed as cell viability measured after 72 hrs by Micro plate reader method; type: functional, cell-based; settings: BaF3, 72 h

BDNF/NT-3 growth factors receptor, sequence (Q16620 whole entry): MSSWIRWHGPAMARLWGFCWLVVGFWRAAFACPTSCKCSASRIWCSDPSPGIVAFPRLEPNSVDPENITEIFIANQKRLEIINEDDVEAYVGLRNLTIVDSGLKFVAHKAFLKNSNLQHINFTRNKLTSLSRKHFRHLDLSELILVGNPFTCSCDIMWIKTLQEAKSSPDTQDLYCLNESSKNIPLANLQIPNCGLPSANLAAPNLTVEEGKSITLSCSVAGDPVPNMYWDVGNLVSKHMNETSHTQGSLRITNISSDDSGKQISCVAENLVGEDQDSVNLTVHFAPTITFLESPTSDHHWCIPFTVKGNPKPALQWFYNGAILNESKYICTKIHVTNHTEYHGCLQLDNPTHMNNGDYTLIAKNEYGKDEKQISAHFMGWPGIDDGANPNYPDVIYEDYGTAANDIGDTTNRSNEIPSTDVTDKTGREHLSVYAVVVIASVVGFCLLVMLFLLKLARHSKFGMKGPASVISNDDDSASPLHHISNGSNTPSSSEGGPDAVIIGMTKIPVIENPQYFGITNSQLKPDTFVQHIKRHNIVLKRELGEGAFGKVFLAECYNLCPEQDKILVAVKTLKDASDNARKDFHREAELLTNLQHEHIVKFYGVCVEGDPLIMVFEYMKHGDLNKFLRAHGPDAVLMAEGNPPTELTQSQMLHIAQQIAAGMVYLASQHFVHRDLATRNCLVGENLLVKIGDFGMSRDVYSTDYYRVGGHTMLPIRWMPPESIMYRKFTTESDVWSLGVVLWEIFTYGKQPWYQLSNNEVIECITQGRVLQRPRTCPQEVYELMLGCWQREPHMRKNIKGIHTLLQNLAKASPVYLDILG
High affinity nerve growth factor receptor, sequence (P04629 whole entry): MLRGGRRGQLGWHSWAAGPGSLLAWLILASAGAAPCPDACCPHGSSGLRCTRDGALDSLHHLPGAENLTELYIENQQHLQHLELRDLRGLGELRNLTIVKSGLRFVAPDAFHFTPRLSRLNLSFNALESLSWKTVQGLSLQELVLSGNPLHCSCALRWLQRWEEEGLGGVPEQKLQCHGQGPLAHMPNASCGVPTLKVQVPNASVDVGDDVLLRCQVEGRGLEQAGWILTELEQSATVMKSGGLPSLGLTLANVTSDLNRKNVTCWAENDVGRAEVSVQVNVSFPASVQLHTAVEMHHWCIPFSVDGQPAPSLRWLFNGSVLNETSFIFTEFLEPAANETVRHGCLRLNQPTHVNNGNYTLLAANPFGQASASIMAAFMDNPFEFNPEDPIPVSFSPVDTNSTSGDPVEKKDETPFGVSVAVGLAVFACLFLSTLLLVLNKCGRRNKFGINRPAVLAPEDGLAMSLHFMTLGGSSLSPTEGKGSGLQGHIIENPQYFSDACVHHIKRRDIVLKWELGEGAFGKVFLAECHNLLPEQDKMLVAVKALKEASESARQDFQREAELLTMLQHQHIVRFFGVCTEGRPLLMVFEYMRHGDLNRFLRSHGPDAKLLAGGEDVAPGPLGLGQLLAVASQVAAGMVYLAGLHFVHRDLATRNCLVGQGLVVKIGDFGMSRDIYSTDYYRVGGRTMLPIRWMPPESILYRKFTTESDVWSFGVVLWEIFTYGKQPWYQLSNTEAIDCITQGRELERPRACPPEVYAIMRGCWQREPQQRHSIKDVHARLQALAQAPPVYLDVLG

| pIC50 [1] | pIC50 [2] | SMILES | other results |
| --- | --- | --- | --- |
| 8.10 | 7.54 | CN(Cc1cc(F)cc(F)c1)c1ccc2[nH]nc(/C=C/c3ccccn3)c2c1 |  |
| 8.32 | 7.62 | Fc1cc(F)cc(Sc2ccc3[nH]nc(/C=C/c4ccccn4)c3c2)c1 |  |
| 7.10 | 7.31 | Fc1ccc(CNc2ccc3[nH]nc(/C=C/c4ccccn4)c3c2)cc1 |  |
| 8.46 | 7.98 | Fc1cc(F)cc(NCc2ccc3[nH]nc(/C=C/c4ccccn4)c3c2)c1 |  |
| 7.44 | 8.06 | Fc1ccccc1CNc1ccc2[nH]nc(/C=C/c3ccccn3)c2c1 |  |
| 7.37 | 7.92 | CN(Cc1ccc2[nH]nc(/C=C/c3ccccn3)c2c1)c1cc(F)cc(F)c1 |  |
| 7.51 | 7.98 | Fc1cc(Br)cc(CNc2ccc3[nH]nc(/C=C/c4ccccn4)c3c2)c1 |  |
| 7.57 | 8.51 | COc1cc(F)cc(CNc2ccc3[nH]nc(/C=C/c4ccccn4)c3c2)c1 |  |
| 6.14 | 6.60 | Fc1cc(F)cc(-c2ccc3[nH]nc(/C=C/c4ccccn4)c3c2)c1 |  |
| 8.96 | 7.97 | C(=C\c1n[nH]c2ccc(NCc3ccccc3)cc12)/c1ccccn1 |  |
| 8.07 | 8.43 | Fc1cc(F)cc(CCc2ccc3[nH]nc(/C=C/c4ccccn4)c3c2)c1 |  |
| 7.30 | 7.98 | Cc1cc(F)cc(CNc2ccc3[nH]nc(/C=C/c4ccccn4)c3c2)c1 |  |
| 8.08 | 8.82 | Fc1cc(F)cc(CNc2ccc3[nH]nc(/C=C/c4ccccn4)c3c2)c1 | pIC50 (BaF3 [3]): 7.46; pIC50 (BaF3 [4]): 7.47; pIC50 (BaF3 [5]): 7.85; pIC50 (BaF3 [6]): 6.31 |
| 7.75 | 8.46 | N#Cc1cc(F)cc(CNc2ccc3[nH]nc(/C=C/c4ccccn4)c3c2)c1 |  |
| 8.92 | 7.88 | Fc1cc(F)cc(COc2ccc3[nH]nc(/C=C/c4ccccn4)c3c2)c1 | pIC50 (BaF3 [3]): 6.88; pIC50 (BaF3 [4]): 6.77; pIC50 (BaF3 [5]): 6.93 |
| < 6.00 | < 6.00 | O=C(Nc1cc(F)cc(F)c1)c1ccc2[nH]nc(/C=C/c3ccccn3)c2c1 |  |
| < 6.00 | < 6.00 | Fc1cc(F)cc(C#Cc2ccc3[nH]nc(/C=C/c4ccccn4)c3c2)c1 |  |
| 7.51 |  | Fc1cc(F)cc(Nc2ccc3[nH]nc(/C=C/c4ccccn4)c3c2)c1 |  |
| 8.14 | 7.68 | Fc1cc(F)cc(OCc2ccc3[nH]nc(/C=C/c4ccccn4)c3c2)c1 |  |
| 6.61 | 7.12 | Fc1cc(CNc2ccc3[nH]nc(/C=C/c4ccccn4)c3c2)cc(C(F)(F)F)c1 |  |
|  |  | O=C(Nc1cnn2ccc(N3CCC[C@@H]3c3cc(F)ccc3F)nc12)N1CC[C@H](O)C1 [LAROTRECTINIB] | pIC50 (BaF3 [7]): 6.74; pIC50 (BaF3 [8]): 7.27; pIC50 (BaF3 [3]): 7.80; pIC50 (BaF3 [4]): 7.40; pIC50 (BaF3 [9]): 5.65; pIC50 (BaF3 [10]): 6.27; pIC50 (BaF3 [5]): 7.89; pIC50 (BaF3 [6]): < 5.00; pIC50 (BaF3 [11]): 5.92 |
| 7.63 | 7.39 | CN(c1cc(F)cc(F)c1)c1ccc2[nH]nc(/C=C/c3ccccn3)c2c1 |  |
| 6.61 | 6.72 | O=C(Nc1ccc2[nH]nc(/C=C/c3ccccn3)c2c1)c1cc(F)cc(F)c1 |  |
| 8.89 | 8.12 | Fc1cc(F)cc(Cc2ccc3[nH]nc(/C=C/c4ccccn4)c3c2)c1 | pIC50 (BaF3 [3]): 6.88; pIC50 (BaF3 [4]): 6.79; pIC50 (BaF3 [5]): 6.90 |
| 8.31 | 8.24 | Fc1cccc(CNc2ccc3[nH]nc(/C=C/c4ccccn4)c3c2)c1 |  |
| 8.40 | 7.63 | Fc1cc(F)cc(Oc2ccc3[nH]nc(/C=C/c4ccccn4)c3c2)c1 |  |
| 7.81 | 8.70 | Fc1cc(Cl)cc(CNc2ccc3[nH]nc(/C=C/c4ccccn4)c3c2)c1 |  |
